Experimental data taken from US8276663B2, “Methods for reducing biological load in subterranean formations” (Halliburton Energy Services Inc., priority 2010, dated 2012).

Columns and labels:
Type in all cases: physicochemical
[1] = Compatibility of guar-based fluid (DELTA 140) and TTPC, FIG. 4
Text: The starting viscosity of each of the tested fluids, was as follows: 824.2 for the control, 263.7 for the fluid containing 125 ppm TTPC, 567.3 for the fluid containing 250 ppm TTPC, and 721.6 for the fluid containing 375 pp, TTPC.

[2] = Compatibility of CMHPG fluid (SIROCCO) and TTPC, FIG. 1
Protocol: First, a treatment fluid containing 35 pptg (pounds per thousand gallons) carboxymethyl hydroxypropyl guar (CMHPG) fluid (SIROCCO, commercially available from Halliburton Energy Services, Inc. of Duncan, Okla.) with a pH of approximately 10.1 at 250° F. was tested and found to be compatible with TTPC up to about 250 ppm, as shown in FIG. 1. Not shown in […] is the starting viscosity of each of the tested fluids, which was as follows: 117.1 for the control, 140.1 for the fluid containing 125 ppm TTPC, 116.2 for the fluid containing 250 ppm TTPC, and 147.4 for the fluid containing 375 pp, TTPC.

[3] = Compatibility of guar-based fluid (DELTA 200) and TTPC, FIG. 5
Text: The starting viscosity of each of the tested fluids, was as follows: 77.0 for the control, 251.9 for the fluid containing 125 ppm TTPC, 59.7 for the fluid containing 250 ppm TTPC, and 96.8 for the fluid containing 375 pp, TTPC.

[4] = Compatibility of guar-based fluid (HYBOR G) and TTPC, FIG. 3
Text: The starting viscosity of each of the tested fluids, was as follows: 138.1 for the control, 141.3 for the fluid containing 125 ppm TTPC, 125.7 for the fluid containing 250 ppm TTPC, and 128.8 for the fluid containing 375 pp, TTPC.

[5] = Compatibility of HPG-based fluid (HYBOR H) and TTPC, FIG. 2
Text: Not shown in FIG. 2 is the starting viscosity of each of the tested fluids, which was as follows: 160.2 for the control, 172.9 for the fluid containing 125 ppm TTPC, 185.5 for the fluid containing 250 ppm TTPC, and 188.7 for the fluid containing 375 pp, TTPC.

[6] = Compatibility of CMHPG-based fluid (pHaser Frac) and TTPC, FIG. 6
Text: The starting viscosity of each of the tested fluids, was as follows: 719.1 for the control, 1182.63 for the fluid containing 30 ppm TTPC, 1067.5 for the fluid containing 60 ppm TTPC, and 1015.8 for the fluid containing 125 pp, TTPC.

TTPC concentration up to which fluid is compatible ([1]; DELTA 140, 2 gptg tetramethylammonium chloride, 3 gptg BC-140, 140° F.): up to 375 ppm | starting viscosity of fluid ([1]; DELTA 140, 125 ppm TTPC): 263.7 | starting viscosity of fluid ([1]; DELTA 140, 250 ppm TTPC): 567.3 | starting viscosity of fluid ([1]; DELTA 140, 375 pp, TTPC): 721.6 | starting viscosity of fluid ([2]; 125 ppm TTPC): 140.1 | starting viscosity of fluid ([2]; 250 ppm TTPC): 116.2 | starting viscosity of fluid ([2]; 375 pp, TTPC): 147.4 | TTPC concentration up to which fluid is compatible ([2]; pH approximately 10.1, 250° F.): up to 250 ppm | TTPC concentration up to which fluid is compatible ([3]; DELTA 200, 2 gptg Clayfix II, 2.5 gptg BC-200 UC, 204° F.): up to 375 ppm | starting viscosity of fluid ([3]; DELTA 200, 125 ppm TTPC): 251.9 | starting viscosity of fluid ([3]; DELTA 200, 250 ppm TTPC): 59.7 | starting viscosity of fluid ([3]; DELTA 200, 375 pp, TTPC): 96.8 | TTPC concentration up to which fluid is compatible ([4]; 1 gptg GasPerm 1000, 5 pptg sodium thiosulfate, 225° F.): up to 375 ppm | starting viscosity of fluid ([4]; 125 ppm TTPC): 141.3 | starting viscosity of fluid ([4]; 250 ppm TTPC): 125.7 | starting viscosity of fluid ([4]; 375 pp, TTPC): 128.8 | TTPC concentration up to which fluid is compatible ([5]; 1 gptg GasPerm 1000, 4% KCl, 225° F.): up to 375 ppm | starting viscosity of fluid ([5]; 125 ppm TTPC): 172.9 | starting viscosity of fluid ([5]; 250 ppm TTPC): 185.5 | starting viscosity of fluid ([5]; 375 pp, TTPC): 188.7 | TTPC concentration up to which fluid is compatible ([6]; 2 gptg tetramethylammonium chloride, 1.1 gptg pH buffer, 1.4 gptg CL-37, 225° F.): up to 125 ppm | starting viscosity of fluid ([6]; 30 ppm TTPC): 1182.63 | starting viscosity of fluid ([6]; 60 ppm TTPC): 1067.5 | starting viscosity of fluid ([6]; 125 pp, TTPC): 1015.8
SMILES: CCCCCCCCCCCCCC[P+](CCCC)(CCCC)CCCC.[Cl-] [TTPC, tri-n-butyl tetradecyl phosphonium chloride]
